Test results from publication PMC2924234 (Acta Crystallographica Section D: Biological Crystallography, 2006).

Key:
potassium ion-channel = conditions: cited from earlier work
male CF-1 mice = conditions: mouse, in vivo

conkunitzin-S1
Pore-blocking activity (potassium ion-channel): potassium ion-channel pore-blocking toxin | 95% confidence limits of the ED50 of seizure activity (male CF-1 mice): 0.3 to 2 nmol | Behaviour observed after injection (male CF-1 mice): spastic running followed by tonic extension seizures | ED50 of seizure activity (male CF-1 mice): 1 nmol per mouse
